The record followed here is US11370771B2, “Inhibitors of TRPC6” (Boehringer Ingelheim International GmbH, priority 2018, dated 2022).

The target in this assay is T1, human TRPC6 (Homo sapiens, UniProt Q9Y210).
T1 construct: expressed in transfected cells
T1 sequence (Q9Y210 1-931): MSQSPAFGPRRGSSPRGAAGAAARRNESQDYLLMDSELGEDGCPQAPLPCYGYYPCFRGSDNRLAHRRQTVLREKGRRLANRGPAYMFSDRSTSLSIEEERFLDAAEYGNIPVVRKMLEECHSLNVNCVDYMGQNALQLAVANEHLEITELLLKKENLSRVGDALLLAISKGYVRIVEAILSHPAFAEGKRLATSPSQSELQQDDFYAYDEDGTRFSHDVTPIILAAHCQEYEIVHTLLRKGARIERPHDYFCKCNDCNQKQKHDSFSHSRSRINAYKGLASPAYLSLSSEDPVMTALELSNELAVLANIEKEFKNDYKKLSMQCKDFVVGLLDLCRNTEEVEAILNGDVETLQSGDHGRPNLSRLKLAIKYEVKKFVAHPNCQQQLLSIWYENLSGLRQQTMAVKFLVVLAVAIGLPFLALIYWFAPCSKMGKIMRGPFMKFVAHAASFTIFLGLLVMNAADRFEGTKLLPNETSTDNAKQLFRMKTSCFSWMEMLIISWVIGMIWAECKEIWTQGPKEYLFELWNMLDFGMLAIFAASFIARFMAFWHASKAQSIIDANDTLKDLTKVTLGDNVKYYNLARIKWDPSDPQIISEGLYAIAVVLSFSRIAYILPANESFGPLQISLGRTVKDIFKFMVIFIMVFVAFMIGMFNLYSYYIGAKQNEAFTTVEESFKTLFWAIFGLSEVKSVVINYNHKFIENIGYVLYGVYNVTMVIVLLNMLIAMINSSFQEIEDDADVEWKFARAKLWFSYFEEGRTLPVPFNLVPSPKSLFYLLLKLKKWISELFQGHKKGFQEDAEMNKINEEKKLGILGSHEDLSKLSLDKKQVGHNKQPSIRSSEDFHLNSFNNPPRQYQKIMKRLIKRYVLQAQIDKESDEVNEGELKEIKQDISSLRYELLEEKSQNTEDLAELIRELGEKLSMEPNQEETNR
Briefly: High Throughput Screening Assay Method 2 (membrane potential dye, GSK1702934A agonist, HEK293 stably transfected with human TRPC6). Type of assay: cell-based. The note with it: antagonist effect against human TRPC6, 3 μM GSK1702934A agonist, HEK293 TRPC6 cells, read-out: Fluorescence TRPC6 IC50. From the text: This screening assay measures TRPC6 (transient receptor potential cation channel, subfamily C, member 6) ion channel activation via addition either of the commercially available DAG ligand analogue OAG (1-oleoyl-2-acetyl-sn-glycerol) or of the TRPC6 agonist 1-[1-(4,5,6,7,8-pentahydrocyclohepta[2,1-d]thiophen-2-ylcarbonyl)-4-piperidyl]-3-hydrobenzimidazol-2-one (GSK1702934A). The assay utilizes a FLIPR membrane potential (FMP) dye from Molecular Devices, which is a voltage sensitive indicator with a fluorescent quencher. Changes in membrane potential as measured by the fluorescent signal increase during membrane depolarization provide a measurement of channel activity.
The commercially available HEK293 cell line (ATCC) was stably transfected with an human TRPC6 gene construct in pcDNA3.1(+) (Thermo Fisher) and screened to find a clone with TRPC6 expression. These cells were maintained in growth medium recommended by the manufacturer supplemented with 400 μg/ml G418 to promote retention of the TRPC6 construct. After growing to near confluency, cells were plated at a density of 15,000 cells/well in clear bottom black walled poly-D-Lys coated 384-well tissue culture treated plates (TwinHelix, cat. #GR 4332 CPL) in growth medium lacking G418, and allowed to grow for 24 hrs. Growth media was removed from the wells and cells were then loaded with 20 μL of 0.5× Membrane Potential sensitive dye (Molecular Devices) in the presence of 30 μM BAPTA-AM (Invitrogen) in Tyrode's assay buffer (130 mM NaCl, 5 mM KCl, 0.15 mM CaCl2), 1 mM MgCl2, 5 mM NaHCO3, 20 mM HEPES, pH 7.4) and incubated for 60 min at room temperature in the dark. Ten μL/well of test compound or controls was added to the wells with the FLIPR^TETRA (Molecular Devices) and incubated for 5 minutes. Compounds were tested at eight concentrations (10, 3.16, 1, 0.316, 0.1, 0.0316, 0.01 and 0.00316 μM diluted in Tyrode's assay buffer and 0.5% DMSO, final concentration) with inter-plate duplicate data points. Subsequently, 15 μL/well of GSK1702934A agonist in Tyrode's assay buffer was added to a final concentration of 3 μM by the FLIPR^TETRA and the signal of the emitted fluorescence (Excitation: 510-545 nm, Emission: 565-625 nm) was recorded for 3 minutes. Negative and positive controls were included on each plate. Negative controls wells consisted of cells exposed to Tyrode's assay buffer and agonist solution, but no test compound. Positive control consisted of cells exposed to […] Verapamil hydrochloride (Tocris, cat. #0654) diluted in Tyrode's assay buffer and 0.5% DMSO final concentration and agonist solution. Inhibition was expressed as a percentage of control, with 0% activity being a result in which the response value of the test wells reached a level identical to the wells containing Verapamil plus GSK1702934A and 100% activity being a result in which the response value of the test wells reached a level identical to the wells containing GSK1702934A alone. Genedata Screener® 14.0.6 was used for data analysis to fit IC50 curves.

By IC50 is commonly meant the concentration at which inhibition is half-maximal.

As to `COc1cc(N)ncc1C1CCN(C(=O)c2ccc(OC[C@@H]3C[C@H]3C)cc2F)CC1` (relative stereo) [Compound 38, 5-[1-(2-Fluoro-4-{[trans-2-methylcyclopropyl]methoxy}benzoyl)piperidin-4-yl]-4-methoxypyridin-2-amine], the concentration for half-maximal inhibition (IC50) was found to be 0.791 µM.
For `COc1cc(N)ncc1N1CCN(C(=O)c2ccc(Oc3ccc(F)cc3)cc2F)C2(CC2)C1` [Compound 27, 5-{4-[2-Fluoro-4-(4-fluorophenoxy)benzoyl]-4,7-diazaspiro[2.5]octan-7-yl}-4-methoxypyridin-2-amine] the value was 0.097 µM; for `COc1cc(N)ncc1N1CCN(C(=O)c2cc(F)c(Oc3ccc(F)cc3)cc2F)C2(CC2)C1` [Compound 28, 5-{4-[2,5-Difluoro-4-(4-fluorophenoxy)benzoyl]-4,7-diazaspiro[2.5]octan-7-yl}-4-methoxypyridin-2-amine], 0.135 µM; for `COc1cc(C(=O)N2CCC(c3cnc(N)cc3OC)CC2)c(F)cc1Oc1ccc(F)cc1` [Compound 29, 5-{1-[2-Fluoro-4-(4-fluorophenoxy)-5-methoxybenzoyl]piperidin-4-yl}-4-methoxypyridin-2-amine], 0.158 µM.
The result for `COc1cc(N)ncc1C1CCN(C(=O)c2cc(F)c(Oc3ccc(F)cc3)cc2F)CC1` [Compound 30, 5-{1-[2,5-Difluoro-4-(4-fluorophenoxy)benzoyl]piperidin-4-yl}-4-methoxypyridin-2-amine] reads 0.166 µM; that for `COc1cc(N)ncc1C1CCN(C(=O)c2ccc(Oc3ccc(F)cc3)cc2F)CC1` [Compound 31, 5-{1-[2-Fluoro-4-(4-fluorophenoxy)benzoyl]piperidin-4-yl}-4-methoxypyridin-2-amine], 0.205 µM.
The result for `COc1cc(N)ncc1C1CCN(C(=O)c2ccc(Oc3ccc(F)cc3)cc2)CC1` [Compound 32, 5-{1-[4-(4-Fluorophenoxy)benzoyl]piperidin-4-yl}-4-methoxypyridin-2-amine] reads 0.097 µM; that for `COc1cc(C(=O)N2CCC(c3cnc(N)cc3OC)CC2)c(F)cc1OCC(C)C` [Compound 33, 5-{1-[2-Fluoro-5-methoxy-4-(2-methylpropoxy)benzoyl]piperidin-4-yl}-4-methoxypyridin-2-amine], 0.25 µM.
With `COc1cc(C(=O)N2CCC(c3cnc(N)cc3OC)CC2)c(F)cc1OCC1CC(C)C1` (stereo not drawn) [Compound 34, 5-(1-{2-Fluoro-5-methoxy-4-[(3-methylcyclobutyl)methoxy]benzoyl}piperidin-4-yl)-4-methoxypyridin-2-amine], the IC50 came out at 0.428 µM.
In the case of `COc1cc(C(=O)N2CCC(c3cnc(N)cc3OC)CC2)c(F)cc1OCC1CC1` [Compound 35, 5-{1-[4-(Cyclopropylmethoxy)-2-fluoro-5-methoxybenzoyl]piperidin-4-yl}-4-methoxypyridin-2-amine], the IC50 is 0.154 µM.
On to `COc1cc(C(=O)N2CCC(c3cnc(N)cc3OC)CC2)c(F)cc1OCC1CCC1` [Compound 36, 5-{1-[4-(Cyclobutylmethoxy)-2-fluoro-5-methoxybenzoyl]piperidin-4-yl}-4-methoxypyridin-2-amine], for which the IC50 turned out to be 0.135 µM.
Regarding `COc1cc(C(=O)N2CCC(c3cnc(N)cc3OC)CC2)c(F)cc1OCC1CC(F)(F)C1` [Compound 37, 5-(1-{4-[(3,3-Difluorocyclobutyl)methoxy]-2-fluoro-5-methoxybenzoyl}piperidin-4-yl)-4-methoxypyridin-2-amine], the half-maximal inhibitory concentration (IC50) is 0.478 µM.
Take `CCCOc1ccc(C(=O)N2CCC(c3cnc(N)cc3OC)CC2)c(F)c1` [Compound 39, 5-[1-(2-Fluoro-4-propoxybenzoyl)piperidin-4-yl]-4-methoxypyridin-2-amine]: the IC50 was determined as 0.662 µM.
Take `COc1cc(N)ncc1C1CCN(C(=O)c2ccc(OCc3csnn3)cc2F)CC1` [Compound 40, 5-(1-{2-Fluoro-4-[(1,2,3-thiadiazol-4-yl)methoxy]benzoyl}piperidin-4-yl)-4-methoxypyridin-2-amine]: the concentration for half-maximal inhibition (IC50) turned out to be 0.482 µM.
For `COc1cc(N)ncc1C1CCN(C(=O)c2ccc(OCC3CCCCC3)cc2F)CC1` [Compound 41, 5-{1-[4-(Cyclohexylmethoxy)-2-fluorobenzoyl]piperidin-4-yl}-4-methoxypyridin-2-amine] the value was 2.17 µM.
The result for `COc1cc(N)ncc1C1CCN(C(=O)c2ccc(OCCC3CC3)cc2F)CC1` [Compound 42, 5-{1-[4-(2-Cyclopropylethoxy)-2-fluorobenzoyl]piperidin-4-yl}-4-methoxypyridin-2-amine] reads 0.789 µM; that for `COc1cc(N)ncc1C1CCN(C(=O)c2ccc(OCc3ccccc3)cc2F)CC1` [Compound 43, 5-{1-[4-(Benzyloxy)-2-fluorobenzoyl]piperidin-4-yl}-4-methoxypyridin-2-amine], 1.81 µM.
With `COc1cc(C(=O)N2CCC(c3cnc(N)cc3OC)CC2)ccc1OCC1CCC1` [Compound 44, 5-{1-[4-(Cyclobutylmethoxy)-3-methoxybenzoyl]piperidin-4-yl}-4-methoxypyridin-2-amine], the IC50 is 0.199 µM.
As for `Nc1ccc(C2CCN(C(=O)c3cc(F)c(Oc4ccc(F)cc4)cc3F)CC2)nn1` [Compound 45, 6-{1-[2,5-Difluoro-4-(4-fluorophenoxy)benzoyl]piperidin-4-yl}pyridazin-3-amine], the IC50 was determined as 0.061 µM.
With `Nc1ccc(C2CCN(C(=O)c3ccc(Oc4ccc(F)cc4)cc3F)CC2)nn1` [Compound 46, 6-{1-[2-Fluoro-4-(4-fluorophenoxy)benzoyl]piperidin-4-yl}pyridazin-3-amine], the IC50 amounted to 0.057 µM.
`COc1cc(C(=O)N2CCC(c3ccc(N)nn3)CC2)c(F)cc1Oc1ccc(F)cc1` [Compound 47, 6-{1-[2-Fluoro-4-(4-fluorophenoxy)-5-methoxybenzoyl]piperidin-4-yl}pyridazin-3-amine]: the IC50 was determined as 0.034 µM.
As to `Nc1ccc(C2CCN(C(=O)c3ccc(Oc4ccc(F)cc4)c(F)c3)CC2)nn1` [Compound 48, 6-{1-[3-Fluoro-4-(4-fluorophenoxy)benzoyl]piperidin-4-yl}pyridazin-3-amine], the IC50 turned out to be 0.141 µM.
`Nc1ccc(C2CCN(C(=O)c3ccc(Oc4ccccc4)c(C(F)(F)F)c3)CC2)nn1` [Compound 49, 6-{1-[4-Phenoxy-3-(trifluoromethyl)benzoyl]piperidin-4-yl}pyridazin-3-amine]: the IC50 worked out at 1.16 µM.
With `Cc1cc(C2CCN(C(=O)c3ccc(Oc4ccc(F)cc4)cc3)CC2)nnc1N` [Compound 50, 6-{1-[4-(4-Fluorophenoxy)benzoyl]piperidin-4-yl}-4-methylpyridazin-3-amine], the concentration for half-maximal inhibition (IC50) was found to be 0.288 µM.
